In PubChem BioAssay (NCI):
Values joined by “and” are separate entries in the source; they are usually repeats but may differ in a detail not shown here. Equal values may be shown once.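 Cultured in 96-well plates, cells were exposed to test compound for 48 hours across five concentrations. GI50 is the concentration that inhibits growth by half. TGI: concentration producing complete growth inhibition.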

Tests used:
Experiment in all cases: NCI-60 cell line screen, 48 h
MDA-MB-468 breast = test system: MDA-MB-468 breast
SF-295 CNS = test system: SF-295 CNS
OVCAR-8 ovarian = test system: OVCAR-8 ovarian
ACHN renal = test system: ACHN renal
NCI-H522 lung = test system: NCI-H522 lung
NCI-H226 lung = test system: NCI-H226 lung
HCC-2998 colon = test system: HCC-2998 colon
T-47D breast = test system: T-47D breast
SF-539 CNS = test system: SF-539 CNS
UACC-62 melanoma = test system: UACC-62 melanoma
IGROV1 ovarian = test system: IGROV1 ovarian
SF-268 CNS = test system: SF-268 CNS
PC-3 prostate = test system: PC-3 prostate
OVCAR-4 ovarian = test system: OVCAR-4 ovarian
LOX IMVI melanoma = test system: LOX IMVI melanoma
NCI-H23 lung = test system: NCI-H23 lung
COLO 205 colon = test system: COLO 205 colon
K-562 leukemia = test system: K-562 leukemia
OVCAR-3 ovarian = test system: OVCAR-3 ovarian
MALME-3M melanoma = test system: MALME-3M melanoma
CCRF-CEM leukemia = test system: CCRF-CEM leukemia
HOP-92 NSCLC = test system: HOP-92 NSCLC
HOP-62 NSCLC = test system: HOP-62 NSCLC
RXF 393 renal = test system: RXF 393 renal
MDA-MB-435 = test system: MDA-MB-435
SW-620 colon = test system: SW-620 colon
NCI/ADR-RES ovarian = test system: NCI/ADR-RES ovarian
DU-145 prostate = test system: DU-145 prostate
SNB-19 CNS = test system: SNB-19 CNS
KM12 colon = test system: KM12 colon
786-0 renal = test system: 786-0 renal
CAKI-1 renal = test system: CAKI-1 renal
HCT-116 colon = test system: HCT-116 colon
HT29 colon = test system: HT29 colon
SK-MEL-28 melanoma = test system: SK-MEL-28 melanoma
A498 renal = test system: A498 renal
M14 melanoma = test system: M14 melanoma
MCF7 breast = test system: MCF7 breast
TK-10 renal = test system: TK-10 renal
BT-549 breast = test system: BT-549 breast
SN12C renal = test system: SN12C renal
A549 NSCLC = test system: A549 NSCLC
EKVX NSCLC = test system: EKVX NSCLC
RPMI-8226 leukemia = test system: RPMI-8226 leukemia
MOLT-4 leukemia = test system: MOLT-4 leukemia
SR leukemia = test system: SR leukemia
HL-60(TB) leukemia = test system: HL-60(TB) leukemia
UACC-257 melanoma = test system: UACC-257 melanoma
NCI-H460 lung = test system: NCI-H460 lung
SK-OV-3 ovarian = test system: SK-OV-3 ovarian
OVCAR-5 ovarian = test system: OVCAR-5 ovarian
SK-MEL-5 melanoma = test system: SK-MEL-5 melanoma
HS 578T breast = test system: HS 578T breast
U251 CNS = test system: U251 CNS
HCT-15 colon = test system: HCT-15 colon

In the case of `NC(N)=NN=c1c(=O)c2ccccc2c1=O`, the GI50 (MDA-MB-468 breast) is reported as 16.4 µM and the TGI (MDA-MB-468 breast) is reported as 30.7 µM.

`CCOC(=O)/C(=C/CC/C(C)=C/CC/C(C)=C/CCc1ccoc1)CC(=O)N1CCCCC1` was tested, and the GI50 (MDA-MB-468 breast) was 2.11 µM and the TGI (MDA-MB-468 breast) was 7.26 µM.

With `CCN(C(=O)N1CCN(c2cc3c(cc2F)c(=O)c(C(=O)O)cn3C2CC2)CC1)c1nc(-c2ccccc2)cs1` the GI50 (MDA-MB-468 breast) was 2.52 µM and the TGI (MDA-MB-468 breast) was 8.82 µM.

Work on `C=CC(=O)N[C@@H]1CN(c2nc(Nc3cn(C)nc3OC)c3ncn(C)c3n2)C[C@H]1F` yielded a GI50 (MDA-MB-468 breast) of 0.0256 µM and a TGI (MDA-MB-468 breast) of 0.265 µM.

With `COc1cc2c(Oc3ccc(NC(=O)C4(C(=O)Nc5ccc(F)cc5)CC4)cc3F)ccnc2cc1OCCCN1CCOCC1` the GI50 (MDA-MB-468 breast) was 0.92 µM and 1.05 µM and the TGI (MDA-MB-468 breast) was 2.29 µM and 3.16 µM.

With `CC[C@]12C=CCN3CC[C@@]4(c5ccc(OC)cc5N(C)[C@H]4[C@@](O)(C(=O)OC)[C@@H]1OC(=O)CCC[P+](c1ccc(F)cc1)(c1ccc(F)cc1)c1ccc(F)cc1)[C@@H]32` the GI50 (SF-295 CNS) was > 48.5 µM, the TGI (SF-295 CNS) was > 48.5 µM and the GI50 (OVCAR-8 ovarian) was 18.4 µM. The TGI (OVCAR-8 ovarian) was > 48.5 µM, the GI50 (ACHN renal) was > 48.5 µM and the TGI (ACHN renal) was > 48.5 µM. It also gave a GI50 (NCI-H522 lung) of 3.88 µM, a TGI (NCI-H522 lung) of 32 µM and a GI50 (NCI-H226 lung) of 24.2 µM. For the same compound, the TGI (NCI-H226 lung) was > 48.5 µM, the GI50 (HCC-2998 colon) was 9.53 µM and the TGI (HCC-2998 colon) was 30 µM. The GI50 (T-47D breast) was 10.5 µM, the TGI (T-47D breast) was > 48.5 µM and the GI50 (SF-539 CNS) was 16.8 µM. For the same compound, the TGI (SF-539 CNS) was > 48.5 µM, the GI50 (UACC-62 melanoma) was 6.05 µM and the TGI (UACC-62 melanoma) was 12.3 µM. For the same compound, the GI50 (IGROV1 ovarian) was 7.09 µM, the TGI (IGROV1 ovarian) was 18.2 µM and the GI50 (SF-268 CNS) was 15 µM. For the same compound, the TGI (SF-268 CNS) was > 48.5 µM, the GI50 (PC-3 prostate) was 12.6 µM and the TGI (PC-3 prostate) was > 48.5 µM. The GI50 (OVCAR-4 ovarian) was 16.2 µM, the TGI (OVCAR-4 ovarian) was > 48.5 µM and the GI50 (LOX IMVI melanoma) was 16.6 µM. The TGI (LOX IMVI melanoma) was > 48.5 µM, the GI50 (NCI-H23 lung) was 15.8 µM and the TGI (NCI-H23 lung) was > 48.5 µM. It also gave a GI50 (COLO 205 colon) of 4.98 µM, a TGI (COLO 205 colon) of 11.1 µM and a GI50 (K-562 leukemia) of 9.83 µM. The TGI (K-562 leukemia) was > 48.5 µM, the GI50 (OVCAR-3 ovarian) was 6.47 µM and the TGI (OVCAR-3 ovarian) was 40.7 µM. For the same compound, the GI50 (MALME-3M melanoma) was 6.85 µM, the TGI (MALME-3M melanoma) was 14 µM and the GI50 (MDA-MB-468 breast) was 1.5 µM. For the same compound, the TGI (MDA-MB-468 breast) was 6.3 µM, the GI50 (CCRF-CEM leukemia) was 12.7 µM and the TGI (CCRF-CEM leukemia) was 37.4 µM. It also gave a GI50 (HOP-92 NSCLC) of 5.44 µM, a TGI (HOP-92 NSCLC) of 19.9 µM and a GI50 (HOP-62 NSCLC) of 20.5 µM. For the same compound, the TGI (HOP-62 NSCLC) was > 48.5 µM, the GI50 (RXF 393 renal) was 8.46 µM and the TGI (RXF 393 renal) was 30.7 µM. For the same compound, the GI50 (MDA-MB-435) was 8.14 µM, the TGI (MDA-MB-435) was 18.5 µM and the GI50 (SW-620 colon) was 18.3 µM. For the same compound, the TGI (SW-620 colon) was > 48.5 µM, the GI50 (NCI/ADR-RES ovarian) was > 48.5 µM and the TGI (NCI/ADR-RES ovarian) was > 48.5 µM. For the same compound, the GI50 (DU-145 prostate) was 23.7 µM, the TGI (DU-145 prostate) was > 48.5 µM and the GI50 (SNB-19 CNS) was 11.4 µM. The TGI (SNB-19 CNS) was > 48.5 µM, the GI50 (KM12 colon) was 8.96 µM and the TGI (KM12 colon) was 20.6 µM. The GI50 (786-0 renal) was > 48.5 µM, the TGI (786-0 renal) was > 48.5 µM and the GI50 (CAKI-1 renal) was > 48.5 µM. The TGI (CAKI-1 renal) was > 48.5 µM, the GI50 (HCT-116 colon) was 14.8 µM and the TGI (HCT-116 colon) was > 48.5 µM. For the same compound, the GI50 (HT29 colon) was 12.5 µM, the TGI (HT29 colon) was > 48.5 µM and the GI50 (SK-MEL-28 melanoma) was 5.34 µM. The TGI (SK-MEL-28 melanoma) was 11.6 µM, the GI50 (A498 renal) was > 48.5 µM and the TGI (A498 renal) was > 48.5 µM. The GI50 (M14 melanoma) was 9.1 µM, the TGI (M14 melanoma) was 28.9 µM and the GI50 (MCF7 breast) was 8.26 µM. The TGI (MCF7 breast) was 30.8 µM, the GI50 (TK-10 renal) was 22.2 µM and the TGI (TK-10 renal) was > 48.5 µM. It also gave a GI50 (BT-549 breast) of 8.13 µM, a TGI (BT-549 breast) of 26.5 µM and a GI50 (SN12C renal) of 14.8 µM. For the same compound, the TGI (SN12C renal) was > 48.5 µM, the GI50 (A549 NSCLC) was 21.2 µM and the TGI (A549 NSCLC) was > 48.5 µM. The GI50 (EKVX NSCLC) was 19.4 µM, the TGI (EKVX NSCLC) was > 48.5 µM and the GI50 (RPMI-8226 leukemia) was 2.05 µM. For the same compound, the TGI (RPMI-8226 leukemia) was 9.33 µM, the GI50 (MOLT-4 leukemia) was 9.69 µM and the TGI (MOLT-4 leukemia) was > 48.5 µM. For the same compound, the GI50 (SR leukemia) was 7.45 µM, the TGI (SR leukemia) was 17.3 µM and the GI50 (HL-60(TB) leukemia) was 1.77 µM. For the same compound, the TGI (HL-60(TB) leukemia) was 7.82 µM, the GI50 (UACC-257 melanoma) was 4.67 µM and the TGI (UACC-257 melanoma) was 12 µM. The GI50 (NCI-H460 lung) was 17 µM, the TGI (NCI-H460 lung) was > 48.5 µM and the GI50 (SK-OV-3 ovarian) was 15.8 µM. For the same compound, the TGI (SK-OV-3 ovarian) was > 48.5 µM, the GI50 (OVCAR-5 ovarian) was 20.8 µM and the TGI (OVCAR-5 ovarian) was > 48.5 µM. For the same compound, the GI50 (SK-MEL-5 melanoma) was 8.26 µM, the TGI (SK-MEL-5 melanoma) was 15.7 µM and the GI50 (HS 578T breast) was 11.8 µM. The TGI (HS 578T breast) was 42.4 µM, the GI50 (U251 CNS) was 9.36 µM and the TGI (U251 CNS) was > 48.5 µM. The GI50 (HCT-15 colon) was > 48.5 µM and the TGI (HCT-15 colon) was > 48.5 µM.
